Where two headings read alike, the source gives them in different places.
What was measured:
[1] = system: thyroid hormone receptor (endogenous TRα and TRβ); experiment: GH3-TRE-Ag primary qHTS, luciferase reporter, agonist mode (TOX21_TR_LUC_GH3_Agonist, aeid 803); assay type: cell-based, rat; details: for GH3-TRE-Ag AC50 hitc: hit call from tcpl; for AC50: read-out: GH3-TRE-Ag AC50
[2] = system: thyroid hormone receptor (endogenous TRα and TRβ); experiment: GH3-TRE-Ag-Followup confirmation (TOX21_TR_LUC_GH3_Agonist_Followup, aeid 2226); assay type: cell-based, rat; details: for GH3-TRE-Ag-Followup hitc: hit call from tcpl; for AC50: read-out: GH3-TRE-Ag-Followup AC50
human RXRα = target: T1, human RXRα (Homo sapiens, UniProt P19793); experiment: RXRa-bla-Ag mammalian one-hybrid beta-lactamase assay (TOX21_TR_RXR_BLA_Agonist_Followup_ratio, aeid 2253); assay type: cell-based; details: for tr-followup-rxr-bla-agonist-1 hitc: hit call from tcpl; for Emax: read-out: EMax (% of Control) tr-followup-rxr-bla-agonist-1; for AC50: read-out: tr-followup-rxr-bla-agonist-1 AC50
T1 construct: host or cells: GeneBLAzer UAS-bla HEK 293T
T1 sequence (P19793 227-458 limits assumed): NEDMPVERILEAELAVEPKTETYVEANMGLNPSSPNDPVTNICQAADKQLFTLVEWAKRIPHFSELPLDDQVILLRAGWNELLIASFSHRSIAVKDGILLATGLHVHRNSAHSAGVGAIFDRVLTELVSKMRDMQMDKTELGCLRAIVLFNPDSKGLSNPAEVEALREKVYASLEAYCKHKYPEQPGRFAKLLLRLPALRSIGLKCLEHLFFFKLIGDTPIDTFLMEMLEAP

[3] = target: T2, TRα ligand-binding domain (Homo sapiens, UniProt P10827); experiment: TRa-coa LanthaScreen TR-FRET coactivator (SRC-2 peptide) recruitment, agonist (TOX21_TRA_COA_Agonist_Followup_ratio, aeid 2230); assay type: biochemical; details: for TRa-coa hitc: hit call from tcpl; for Emax: read-out: EMax (% of Control) tra-coa-agonist-followup-1
T2 construct: the receptor LBDs expressed as glutathione S-transferase (GST) fusion proteins; purchased

[4] = system: Tox21 cell viability assays (different cell types); experiment: Global cytotoxicity: eighteen Tox21 cell viability assays; assay type: cell-based
[5] = system: thyroid hormone receptor (TR); experiment: Classification of TR actives across characterization assays (TR-Ag / RXR-Ag; TR model binary); set-up: key to Categorization Code: FP, false positive; details: for Categorization Code: TR agonist characterization; for Classification: TR-Ag = TR agonist, RXR-Ag = RXR agonist
Outline: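 Pharmaceuticals excluded; actives called from GH3-TRE qHTS (agonist, antagonist, viability) on 8,305 chemicals. Confirmation of 84 selected chemicals used GH3-TRE-Ag, mammalian one-hybrid TRβ and RXRα UAS-bla HEK 293T specificity screens, parental HEK293T viability, and two TR:coactivator recruitment assays.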

[6] = system: thyroid hormone receptor (endogenous TRα and TRβ); experiment: cells; set-up: species or system GH3-TRE-Luc (rat pituitary); GH3-TRE-Luc luciferase reporter transactivation, agonist mode, qHTS; RXR ligands can also activate indirectly; details: 24 h, read-out: TR_LUC_GH3_Agonist_AC50 (uM)
[7] = target: T3, human TRβ ligand-binding domain (Homo sapiens, UniProt P10828); experiment: TRb-bla agonist mammalian one-hybrid beta-lactamase assay (TOX21_TRB_BLA_Agonist_Followup_ratio, aeid 2236); assay type: cell-based; set-up: host or cells: GeneBLAzer UAS-bla HEK 293T; details: for TRb-bla hitc: hit call from tcpl; for Emax: read-out: EMax (% of Control) trb-bla-agonist-followup-1
T3 sequence (P10828 217-461 limits assumed): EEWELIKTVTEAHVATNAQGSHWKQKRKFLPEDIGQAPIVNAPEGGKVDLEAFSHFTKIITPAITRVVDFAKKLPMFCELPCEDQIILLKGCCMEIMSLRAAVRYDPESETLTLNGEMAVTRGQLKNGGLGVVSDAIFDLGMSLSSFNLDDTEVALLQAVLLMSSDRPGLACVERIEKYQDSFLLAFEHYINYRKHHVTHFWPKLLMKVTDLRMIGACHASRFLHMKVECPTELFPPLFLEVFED

[8] = target: T3, human TRβ ligand-binding domain; experiment: TRb-coa LanthaScreen TR-FRET coactivator (SRC-2 peptide) recruitment, agonist (TOX21_TRB_COA_Agonist_Followup_ratio, aeid 2244); assay type: biochemical; set-up: host or cells: GeneBLAzer UAS-bla HEK 293T; details: for TRb-coa hitc: hit call from tcpl; for Emax: read-out: EMax (% of Control) trb-coa-agonist-followup-1
GH3-TRE-Luc cell line [9] = experiment: GH3-TRE-Via cell viability, CellTiter-Fluor (TOX21_TR_LUC_GH3_Antagonist_viability, aeid 805); details: for AC50: Rattus norvegicus, read-out: TR_LUC_GH3_Antagonist_viability AC50 (uM)
in vitro [10] = experiment: in vitro; set-up: species or system GH3-TRE-Luc (rat pituitary); CellTiter-Fluor viability run in parallel with antagonist mode (1 nM T3), loss of viability; details: rat, gh3-tre-luc cells, 1 nM T3 present
[11] = Global cytotoxicity: eighteen Tox21 cell viability assays; assay type: cell-based; details: read-out: Global cytotoxicity AC50 median
in vitro [12] = details: rat
in vitro [13] = details: rat, gh3-tre-luc cells, AC50 (uM) modified / 1000
[14] = system: thyroid hormone receptor (endogenous TRα and TRβ); experiment: GH3-TRE-Antag primary qHTS, luciferase reporter, antagonist mode with 1 nM T3 (TOX21_TR_LUC_GH3_Antagonist, aeid 804); assay type: cell-based, rat; details: antagonist mode, 1 nM T3; read-out: GH3-TRE-Antag AC50
[15] = GH3-TRE-Via cell viability, CellTiter-Fluor (TOX21_TR_LUC_GH3_Antagonist_viability, aeid 805); details: rat
GH3-TRE-Luc cell line [16] = details: rat, 24 h
[17] = agonist, read-out: TRa-coa AC50
[18] = median over Tox21 viability assays
[19] = agonist, read-out: TRb-bla AC50
[20] = agonist, read-out: TRb-coa AC50
[21] = median over 18 Tox21 cell viability assays (Judson et al. 2016, invitrodb_v2)
[22] = antagonist candidates, inactive samples arbitrarily set to AC50=1,000 μM
[23] = median over 18 Tox21 cell viability assays, inactive set to 1,000
[24] = cell-free coactivator recruitment, read-out: TRa-coa-Ag AC50
[25] = cell-free coactivator recruitment, read-out: TRb-coa-Ag AC50

T2 sequence (P10827 163-410 isoform P10827-2 limits assumed, other chains not shown): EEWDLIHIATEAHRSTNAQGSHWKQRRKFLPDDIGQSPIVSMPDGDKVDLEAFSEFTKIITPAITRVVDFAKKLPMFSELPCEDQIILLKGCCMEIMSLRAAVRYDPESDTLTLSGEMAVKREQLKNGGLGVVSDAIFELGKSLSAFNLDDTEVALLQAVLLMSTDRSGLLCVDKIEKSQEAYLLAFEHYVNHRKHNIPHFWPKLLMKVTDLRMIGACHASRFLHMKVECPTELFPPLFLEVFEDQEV

SMILES	EMax (% of Control) gh3-tre-agonist [1]	GH3-TRE-Ag AC50 hitc [1]	EMax (% of Control) gh3-tre-agonist-followup-1_agonist [2]	GH3-TRE-Ag-Followup hitc [2]	TRa-coa hitc ([3]; agonist)	Emax [3] [%]	GLOBAL CYTOTOXICITY cytotox.median [4, 18]	Categorization Code [5]	AC50 [6] [µM]	TRb-bla hitc ([7]; agonist)	Emax [7] [%]	TRb-coa hitc ([8]; agonist)	Emax [8] [%]	AC50 ([2]; confirmation, agonist mode) [µM]	AC50 [11, 21] [µM]	Classification [5]	AC50 at 24 h [15] [µM]	GLOBAL CYTOTOXICITY cytotox.number_Active [4]	TR_LUC_GH3_Antagonist_viability hitc (GH3-TRE-Luc cell line [16])	further results
CNC(=O)ON=C(CSC)C(C)(C)C [Thiofanox]	22.7 % of Control	1	9.5 % of Control	0	0	-0.2	>92	FP	21	0	31.7	0	-0.165	–	–	–	–	–	–	AC50 [2]: > 92 µM; tr-followup-rxr-bla-agonist-1 hitc (human RXRα): 0; Emax (human RXRα): 3%; AC50 (human RXRα): > 92 µM; AC50 [3, 17]: > 92 µM; GLOBAL CYTOTOXICITY cytotox.number_Active ([4]; # active of 18 total Tox21 viability assays): 0; AC50 [7, 19]: > 92 µM; AC50 [8, 20]: > 92 µM; AC50 (GH3-TRE-Luc cell line [9]): > 92 µM; TR_LUC_GH3_Antagonist_viability hitc (GH3-TRE-Luc cell line [9]; hit call from tcpl): 0
[CH3][Sn]([CH3])([Cl])[Cl] [Dimethyltin dichloride]	–	–	–	–	–	–	–	–	–	–	–	–	–	–	–	–	–	–	–	CC50 at 24 h (in vitro [10]; AC50 (uM) modified / 1000, Tox21_110001=Tox21_201249, viability): 79.3 µM
[CH3][Sn]([Cl])([Cl])[Cl] [Trichloromethylstannane]	–	–	–	–	–	–	–	–	–	–	–	–	–	–	–	–	–	–	–	CC50 at 24 h (in vitro [10]; AC50 (uM) modified / 1000, Tox21_110001=Tox21_202322, viability): > 90 µM
N[C@@H](Cc1ccc(Oc2cc(I)c(O)c(I)c2)c(I)c1)C(=O)O [3,3ʹ,5ʹ-Triiodo-L-thyronine]	–	–	–	–	–	–	–	–	0.218	–	–	–	–	0.537	> 92	TR-Ag	–	–	–	AC50 (in vitro [12]): > 92 µM; CC50 at 24 h (in vitro [13]): > 50 µM
Cc1ccc2c(Cl)cc(Cl)c(O)c2n1 [5,7-Dichloro-8-hydroxy-2-methylquinoline]	–	–	–	–	–	–	–	–	–	–	–	–	–	–	–	–	1.56	–	–	AC50 [1, 22]: > 92 µM; AC50 [14]: 1.5 µM; AC50 [11, 23]: 13.6 µM; Active in global cytotoxicity assays (%) ([4]; percentage of 18 Tox21 viability assays with hitc=1): 13.6%
CCOP(=O)(OCC)Oc1nc(Cl)c(Cl)cc1Cl [Chlorpyrifos oxon]	–	–	–	–	–	–	–	–	> 90	–	–	–	–	–	–	–	–	–	–	CC50 at 24 h (in vitro [10]; AC50 (uM) modified / 1000, Tox21_110001=Tox21_301063, viability): 60.1 µM
CC1=C(/C=C/C(C)=C/C=C/C(C)=C/C(=O)O)C(C)(C)CCC1 [all trans-Retinoic acid, reference compound]	29.3 % of Control	1	97.2 % of Control	1	0	-0.347	>92	RXR-Ag	–	1	31.1	0	0	1.16	> 92	RXR-Ag	66.7	0	1	AC50 ([1]; primary qHTS, agonist mode, 24 h, top concentration 92 μM): 0.234 µM; AC50 [3, 24]: > 92 µM; AC50 [8, 25]: > 92 µM
Nc1nc(F)nc2c1ncn2[C@@H]1O[C@H](CO)[C@@H](O)[C@@H]1O [Fludarabine, reference compound]	–	–	–	–	–	–	–	–	–	–	–	–	–	–	–	–	22.3	–	–	AC50 [1, 22]: > 92 µM; AC50 [14]: 16.3 µM; AC50 [11, 23]: > 92 µM; Active in global cytotoxicity assays (%) [4]: 1.7%
c1csc(-c2ccc(-c3cccs3)s2)c1 [alpha-Terthiophene]	20.8 % of Control	1	7.5 % of Control	0	0	-0.547	–	FP	80.3	0	25.8	0	-0.0945	–	–	–	–	0	0	AC50 [2]: > 92 µM; tr-followup-rxr-bla-agonist-1 hitc (human RXRα): 1; Emax (human RXRα): 65.3%; AC50 (human RXRα): 0.728 µM; AC50 [3, 17]: > 92 µM; GLOBAL CYTOTOXICITY cytotox.median [4]: >92; AC50 [7, 19]: > 92 µM; AC50 [8, 20]: > 92 µM; AC50 (GH3-TRE-Luc cell line [9]): > 92 µM
CC1=C(/C=C/C(C)=C\C=C\C(C)=C\C(=O)O)C(C)(C)CCC1 [9-cis Retinoic acid, reference compound]	31.8 % of Control	1	76.0 % of Control	1	0	-0.13	>92	RXR-Ag	–	0	5.7	0	-0.274	2.07	> 92	RXR-Ag	> 92	0	0	AC50 [3, 24]: > 92 µM; AC50 ([7]; HEK 293T one-hybrid, agonist mode, read-out: TRb-bla-Ag AC50): > 92 µM; AC50 [8, 25]: > 92 µM
